The text below walks through data of patent US20220380319A1 (Bial - R&D Investments, S.A., priority 2019, published 2022).

The target in one data set is T1, acid ceramidase (Homo sapiens, UniProt Q13510).
T1 construct: Cell lysates overexpressing acid ceramidase were used as the enzyme source; expressed in transfected cells
T1 sequence (Q13510 22-395): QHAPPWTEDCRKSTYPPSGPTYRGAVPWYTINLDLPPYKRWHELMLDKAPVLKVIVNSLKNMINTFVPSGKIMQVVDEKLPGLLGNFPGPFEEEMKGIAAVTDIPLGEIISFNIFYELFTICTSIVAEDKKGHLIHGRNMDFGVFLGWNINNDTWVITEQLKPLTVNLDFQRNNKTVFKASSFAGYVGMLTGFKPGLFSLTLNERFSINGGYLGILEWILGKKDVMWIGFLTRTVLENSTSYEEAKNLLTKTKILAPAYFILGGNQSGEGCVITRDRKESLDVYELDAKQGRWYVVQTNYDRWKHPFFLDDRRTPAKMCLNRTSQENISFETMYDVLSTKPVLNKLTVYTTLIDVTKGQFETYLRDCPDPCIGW
As to the kind of experiment: Acid ceramidase inhibition, biochemical fluorescent assay with cell lysates overexpressing acid ceramidase, substrate Rbm14-12. The conditions noted are these: substrate Rbm14-12 6.3 μM. Summed up: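 Lysate of cells overexpressing acid ceramidase (10 μg protein) preincubated with compound dose series 1 hr at RT in 25 mM NaAC, 100 mM NaCl, pH 4.5, then reacted 1 hr with 6.3 μM Rbm14-12. Stopped with NaIO4/glycine buffer pH 10.6, fluorescence ex360/em446; IC50 by four-parameter fit.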

A short description of data set [1]: Compound solubility in water.
Setting [2] is: pH 4.5, 1 hr preincubation at RT.

The structures appear in SMILES notation. ≈ marks a conversion by molar mass, not a printed value.

Turning to `COc1cc(C2CCN(C)CC2)c2ncn(C(=O)NCCCCc3ccccc3)c2c1` [Example 136, 6-Methoxy-4-(1-methylpiperidin-4-yl)-N-(4-phenylbutyl)-1H-benzo[d]imidazole-1-carboxamide], the IC50 against acid ceramidase (setting [2]) is below 200 nM. The same compound showed a solubility in data set [1] of 21 µg/mL (≈ 49.9 µM).
At acid ceramidase (pH 4.5), `CC(C)CCNC(=O)n1cnc2c(N3CCCOCC3)cccc21` [Example 173, N-iso-Pentyl-4-(1,4-oxazepan-4-yl)-1H-benzo[d]imidazole-1-carboxamide] yielded an IC50 of 200 to 1000 nM. In data set [1], this compound came in with a solubility of 17 µg/mL (≈ 51.4 µM).
Turning to `CCCCNC(=O)n1cnc2ccc(OC)cc21` [Example 51b, N-butyl-6-methoxy-1H-benzo[d]imidazole-1-carboxamide], the IC50 against acid ceramidase (setting [2]) was below 200 nM. In data set [1], this compound showed a solubility of 8.5 µg/mL (≈ 34.4 µM).
On acid ceramidase (pH 4.5), `CC(C)CCNC(=O)n1cnc2c(N3CCOC(C)(C)C3)cccc21` [Example 170, 4-(2,2-Dimethylmorpholino)-N-isopentyl-1H-benzo[d]imidazole-1-carboxamide] showed an IC50 of 200 to 1000 nM. The compound further yielded a solubility in data set [1] of 14 µg/mL (≈ 40.6 µM).
With `COc1nc2cc(-c3cccnc3)cnc2n1C(=O)NCC(C)C` [Example 83, N-iso-Butyl-2-methoxy-6-(pyridin-3-yl)-3H-imidazo[4,5-b]pyridine-3-carboxamide], the IC50 against acid ceramidase (setting [2]) is 200 to 1000 nM. The compound further had a solubility in data set [1] of 16.9 µg/mL (≈ 51.9 µM).
For `Cn1c(=O)n(C(=O)NCCc2ccccc2)c2cc(-c3cncnc3)ccc21` [Example 32a, 3-Methyl-2-oxo-N-phenethyl-6-(pyrimidin-5-yl)-2,3-dihydro-1H-benzo[d]imidazole-1-carboxamide], in that order: above 1000 nM and 0.9 µg/mL (≈ 2.41 µM).
Regarding `COc1nc2cc(N3CCOCC3)c(F)cc2n1C(=O)NCCc1ccccc1` [Example 334b, 6-fluoro-2-methoxy-5-morpholino-N-(2-phenethyl)-1H-benzo[d]imidazole-1-carboxamide], the IC50 against acid ceramidase (pH 4.5) is below 200 nM. In data set [1], the solubility turned out to be 5 µg/mL (≈ 12.5 µM).
Turning to `CN1CCC(c2c(C(F)(F)F)ccc3c2ncn3C(=O)NCCc2ccccc2)CC1` [Example 55, 4-(1-Methylpiperidin-4-yl)-N-phenethyl-5-(trifluoromethyl)-1H-benzo[d]imidazole-1-carboxamide], the IC50 on acid ceramidase (setting [2]) was below 200 nM. Besides, in data set [1], the concentration in solution (solubility) came to 13 µg/mL (≈ 30.2 µM).
The corresponding values for `COc1nc2cc(N3CCOCC3)c(F)cc2n1C(=O)NCCOc1ccccc1` [Example 335b, 6-fluoro-2-methoxy-5-morpholino-N-(2-phenoxyethyl)-1H-benzo[d]imidazole-1-carboxamide] are below 200 nM and 7 µg/mL (≈ 16.9 µM).
Take `CN1CCN(c2cccc3c2ncn3C(=O)NCCCc2ccccc2)CC12CC2` [Example 250, 4-(4-Methyl-4,7-diazaspiro[2.5]octan-7-yl)-N-(3-phenylpropyl)-1H-benzo[d]imidazole-1-carboxamide]: the IC50 on acid ceramidase (pH 4.5) is below 200 nM. The same compound yielded a solubility in data set [1] of 23 µg/mL (≈ 57 µM).
The corresponding values for `O=C(NCCCc1ccccc1)n1cnc2c(N3CCC3)cccc21` [Example 279, 4-(Azetidin-1-yl)-N-(3-phenylpropyl)-1H-benzo[d]-imidazole-1-carboxamide] are below 200 nM and 1 µg/mL (≈ 2.99 µM).
For `O=C(NCCCC(F)(F)F)n1cnc2ccccc21` [Example 80, N-(4,4,4-Trifluorobutyl)-1H-benzo[d]imidazole-1-carboxamide], the IC50 at acid ceramidase (setting [2]) was below 200 nM. The amount in solution in data set [1] (solubility) came to 21.1 µg/mL (≈ 77.8 µM).
As to `COc1nc2cc(N3CCN(C4CN(C)C4)CC3)c(F)cc2n1C(=O)NCCCc1ccccc1` [Example 319a, 6-Fluoro-2-methoxy-5-(4-(1-methylazetidin-3-yl)piperazin-1-yl)-N-(3-phenylpropyl)-1H-benzo[d]imidazole-1-carboxamide], the IC50 against acid ceramidase (pH 4.5) is 200 to 1000 nM. Besides, in data set [1], the solubility turned out to be 35 µg/mL (≈ 72.8 µM).
The corresponding values for `CN1CC2CC1CN2c1cccc2c1ncn2C(=O)NCCOc1ccccc1` (stereo not shown) [Example 295, 4-(5-Methyl-2,5-diazabicyclo[2.2.1]heptan-2-yl)-N-(2-phenoxyethyl)-1H-benzo[d]imidazole-1-carboxamide] are below 200 nM and 33 µg/mL (≈ 84.3 µM).
`COc1nc2ccccc2n1C(=O)NCCc1ccccc1` [Example 3, 2-Methoxy-N-phenethyl-1H-benzo[d]imidazole-1-carboxamide] came in with an IC50 against acid ceramidase (setting [2]) below 200 nM. The same compound returned a solubility in data set [1] of 10 µg/mL (≈ 33.9 µM).
At acid ceramidase (pH 4.5), `CC(C)C#CCNC(=O)n1cnc2c(N3CC4CCC3CN4C)cccc21` (stereo not shown) [Example 304, 4-(5-Methyl-2,5-diazabicyclo[2.2.2]octan-2-yl)-N-(4-methylpent-2-ynyl)-1H-benzo[d]imidazole-1-carboxamide] came in with an IC50 of 200 to 1000 nM. In data set [1], this compound yielded a solubility of 27 µg/mL (≈ 73.9 µM).
Consider `CC(C)CCNC(=O)n1cnc2c(N3CCOCC3)cccc21` [Example 118, N-iso-Pentyl-4-morpholino-1H-benzo[d]imidazole-1-carboxamide], for which, on acid ceramidase (setting [2]), the IC50 lay in the range of 200 to 1000 nM. Besides, in data set [1], the concentration in solution (solubility) came to 21 µg/mL (≈ 66.4 µM).
Compound `CC(C)CCNC(=O)n1cnc2c(N3CCN(C4CCOCC4)CC3)cccc21` [Example 155, N-iso-Pentyl-4-(4-(tetrahydro-2H-pyran-4-yl)-piperazin-1-yl)-1H-benzo[d]imidazole-1-carboxamide] returned an IC50 at acid ceramidase (setting [2]) of 200 to 1000 nM. The compound also registered a solubility in data set [1] of 30 µg/mL (≈ 75.1 µM).
Regarding `O=C(NCCCCc1ccccc1)n1cnc2c(N3CCC4(CC3)COC4)cccc21` [Example 217, N-(4-Phenylbutyl)-4-(2-oxa-7-azaspiro[3.5]nonan-7-yl)-1H-benzo[d]imidazole-1-carboxamide], at acid ceramidase (pH 4.5), the IC50 is below 200 nM. The solubility in data set [1] worked out at 0.6 µg/mL (≈ 1.43 µM).
In turn, `CCCCNC(=O)n1cnc2ccccc21` [Example 24, N-Butyl-1H-benzo[d]imidazole-1-carboxamide] gave an IC50 on acid ceramidase (setting [2]) below 200 nM. The concentration in solution in data set [1] (solubility) was 21.9 µg/mL (≈ 101 µM).
For `CCCCNC(=O)n1cnc2c(C3CCN(C)CC3)cc(OC)cc21` [Example 58, N-Butyl-6-methoxy-4-(1-methylpiperidin-4-yl)-1H-benzo[d]imidazole-1-carboxamide], in that order: 200 to 1000 nM and 28.1 µg/mL (≈ 81.6 µM).
`CC(=O)N1CCN(c2cccc3c2ncn3C(=O)NCCC(C)C)CC1` [Example 203, 4-(4-Acetylpiperazin-1-yl)-N-isopentyl-1H-benzo[d]imidazole-1-carboxamide] had an IC50 against acid ceramidase (pH 4.5) below 200 nM. The solubility in data set [1] came to 26 µg/mL (≈ 72.7 µM).
`CC(C)CCNC(=O)n1cnc2c(N3CCC(F)(F)CC3)cccc21` [Example 143, 4-(4,4-Difluoropiperidin-1-yl)-N-isopentyl-1H-benzo[d]imidazole-1-carboxamide] came in with an IC50 at acid ceramidase (setting [2]) of 200 to 1000 nM. Also, the solubility in data set [1] turned out to be 2 µg/mL (≈ 5.71 µM).
As to `COCCOc1nc2cc(N3CCOCC3)ccc2n1C(=O)NCCCc1ccccc1` [Example 190a, 2-(2-Methoxyethoxy)-5-morpholino-N-(3-phenylpropyl)-1H-benzo[d]imidazole-1 carboxamide], the IC50 at acid ceramidase (pH 4.5) is below 200 nM. In addition, in data set [1], the concentration in solution (solubility) was 17 µg/mL (≈ 38.8 µM).
`Cn1c(=O)n(C(=O)NCCc2ccccc2)c2ncccc21` [Example 88, 1-Methyl-2-oxo-N-phenethyl-1,2-dihydro-3H-imidazo[4,5-b]pyridine-3-carboxamide] came in with an IC50 against acid ceramidase (setting [2]) below 200 nM. Also, the solubility in data set [1] came out at 26.4 µg/mL (≈ 89.1 µM).
For `COc1nc2ccc(N3CCOCC3)cc2n1C(=O)NCCCc1ccccc1` [Example 134a, 2-Methoxy-6-morpholino-N-(3-phenylpropyl)-1H-benzo[d]imidazole-1-carboxamide], in that order: below 200 nM and 17 µg/mL (≈ 43.1 µM).
